Experimental findings from patent US20110016579A1, “Gene of transporter selective to mugineic acid-iron complex” (SUNTORY LIMITED, priority 2005, published 2011) are described below.

Assay [1] concerns HvYS1. In words: Growth of fet3fet4 yeast (DDY4 strain) expressing HvYS1 on different iron sources. To be noted: 30° C., 4 days. It is filed as cell-based, barley (Hordeum vulgare L.). An excerpt: Since DDY4 strain is an yeast that is defective in the divalent iron-absorption system, is unable to grow in an iron-limiting medium (Eide, D. et al., Proc. Natl. Acad. Sci. USA, 1996, vol. 93, pp. 5624-5628) and is unable to grow by taking advantage of mugineic acid-iron (III) complex (Loulergue, C., Gene 1998, vol. 225, pp. 47-57), the yeast having an activity power for selectively absorbing mugineic acid-iron complex can grow on a medium supplemented with mugineic acid-iron(III) complex but the yeast having no above-mentioned activity power cannot grow on the medium.
(§1) Since double mutant fet3fet4 (DDY4 strain) of budding yeast (Saccharomyces cerevisiae) is defective in two genes responsible for absorption of divalent iron (fet3 (a gene for absorbing divalent iron after converting trivalent iron into divalent iron) and fet4 (a gene for absorbing divalent iron as it is)), the yeast can grow neither on an iron-limiting medium (Eide, D. et al., Proc. Natl. Acad. Sci. USA, 1996, vol. 93, pp. 5624-5628) nor by taking advantage of iron complexed with mugineic acid (Loulergue, C., Gene, 1998, vol. 225, pp. 47-57). To investigate the function of HvYS1 in iron transport, the present inventors have studied, using DDY4 strain into which HvYS1 cDNA has been introduced, whether the DDY4 strain in which the gene is expressed is able to grow on a medium containing Fe(III).MA as sole source of iron.
The following three plasmids were independently introduced into each of DDY4 strain and DY1457 (wild) strain: (1) a plasmid into which HvYS1 cDNA cloned at the NotI site of the expression vector pFL61 (by ATCC Co.) was inserted; (2) a plasmid into which ZmYS1 cDNA (Curie, C. et al., Nature, 2001, vol. 49, pp. 346-349) cloned in the same pFL61 vector was inserted; and (3) the pFL61 vector as a reference into which none of the above-mentioned genes was inserted.
Subsequently, the inventors conducted cultivation tests by mixing three different iron sources, or Fe(III).citrate, Fe(III).MA, and Fe(III).NA, with the medium in order to determine substrate selectivity, if any, of HvYS1. The yeast was cultivated in minimum media—Ura supplemented with 50 μM Fe(III).citrate, 10 μM Fe(III).MA, or 10 μM Fe(II).NA, and 10 μM FeCl2 or FeCl3 as a blank. Also, 10 μM of BPDS that is a potent chelating agent of divalent iron was added to the medium supplemented with 10 μM of Fe(III).MA in order to investigate whether the growth of the yeast is inhibited. Fe(III).MA was prepared according to von Wiren, N. et al. , Biochem. Biophys. Acta, 1998, vol. 1371, pp. 143-155. Nicotinamine was purchased from T. Hasegawa Co., and Fe(II).NA was prepared according to Schaaf, G. et al. , J. Biol. Chem., 2004, vol. 279, pp. 9091-9096. The yeast was cultivated at 30° C. for 4 days. Three solutions of the yeast culture (diluted to optical densities (OD) of 0.2, 0.02 and 0.002, respectively, at a wavelength of 600 nm) were spotted on a plate.

The target of a further assay is T1, ZmYS1 (Zea mays, UniProt Q9AY27).
T1 construct: expressed in transfected cells; host or cells: Saccharomyces cerevisiae fet3fet4 double mutant (DDY4 strain), vector pFL61
T1 sequence (Q9AY27 1-682): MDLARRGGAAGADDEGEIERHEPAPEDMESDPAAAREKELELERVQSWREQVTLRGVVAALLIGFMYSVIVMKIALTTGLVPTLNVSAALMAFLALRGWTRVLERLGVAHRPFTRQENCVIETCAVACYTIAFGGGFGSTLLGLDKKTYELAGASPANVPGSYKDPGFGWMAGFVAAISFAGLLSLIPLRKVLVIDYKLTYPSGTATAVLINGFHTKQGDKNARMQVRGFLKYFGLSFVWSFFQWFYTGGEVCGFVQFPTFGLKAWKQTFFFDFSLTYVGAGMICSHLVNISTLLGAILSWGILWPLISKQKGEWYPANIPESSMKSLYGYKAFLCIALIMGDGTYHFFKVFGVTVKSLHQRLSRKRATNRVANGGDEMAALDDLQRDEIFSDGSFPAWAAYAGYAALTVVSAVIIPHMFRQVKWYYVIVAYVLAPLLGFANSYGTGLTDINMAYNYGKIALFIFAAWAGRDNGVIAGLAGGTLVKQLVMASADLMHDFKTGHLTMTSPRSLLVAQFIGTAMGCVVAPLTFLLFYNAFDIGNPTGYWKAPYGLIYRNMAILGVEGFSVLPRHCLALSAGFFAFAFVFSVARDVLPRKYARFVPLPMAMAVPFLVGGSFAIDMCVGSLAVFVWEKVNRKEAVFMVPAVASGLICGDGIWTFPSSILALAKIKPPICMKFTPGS
In words: Growth of fet3fet4 yeast (DDY4 strain) expressing ZmYS1 on different iron sources. It counts as cell-based, maize. To be noted: DDY4 strain expressing ZmYS1, 10 μM, FIG. 3.
Text: as §1
The following three plasmids were independently introduced into each of DDY4 strain and DY1457 (wild) strain: (1) a plasmid into which HvYS1 cDNA cloned at the NotI site of the expression vector pFL61 (by ATCC Co.) was inserted; (2) a plasmid into which ZmYS1 cDNA (Curie, C. et al., Nature, 2001, vol. 49, pp. 346-349) cloned in the same pFL61 vector was inserted; and (3) the pFL61 vector as a reference into which none of the above-mentioned genes was inserted. […]

Assay [2] relates to HvYS1. Kind of assay: Electrophysiological activity (voltage clamp) in HvYS1-expressing Xenopus oocyte cells. To be noted: final concentration of 50 μM, fixed voltage of −60 mV; compared with other mugineic acid-metal complexes and nicotianamine Fe(II) complex. It is filed as cell-based, barley (Hordeum vulgare L.). An excerpt: The activity power for selectively absorbing mugineic acid-iron complex may be also confirmed by observing cell membrane voltage changes using Xenopus oocyte cells. The voltage change of the cell membrane may be obtained by directly measuring the voltage difference between the inside and outside of the cell membrane by, for example, a membrane voltage clamp method, wherein the voltage change of the oocyte cell membrane occurs in accordance with the absorption of mugineic acid-iron complex via the transporter protein expressed in the oocyte cell after adding a solution containing mugineic acid-iron complex to the oocyte cell into which the transporter gene of the invention has been introduced. […]
Subsequently, the inventors have formed mugineic acid complexes of copper, zinc, nickel, manganese, and cobalt as substrates other than Fe(III).MA as in the case of iron in order to determine substrate selectivity, if any, of HvYS1 protein. The oocyte cells in which HvYS1 is expressed were set in a chamber filled with the ND-96 solution, and electrophysiological activity was measured after spraying 10 μL of each 5 mM substrate (final concentration of 50 μM). […] ORIGIN 6.1 software (by Microcal Software Co.) was used for programming and storage of voltage, and analysis of the recorded and stored data. […]
Target sequence in this assay (as listed by the source): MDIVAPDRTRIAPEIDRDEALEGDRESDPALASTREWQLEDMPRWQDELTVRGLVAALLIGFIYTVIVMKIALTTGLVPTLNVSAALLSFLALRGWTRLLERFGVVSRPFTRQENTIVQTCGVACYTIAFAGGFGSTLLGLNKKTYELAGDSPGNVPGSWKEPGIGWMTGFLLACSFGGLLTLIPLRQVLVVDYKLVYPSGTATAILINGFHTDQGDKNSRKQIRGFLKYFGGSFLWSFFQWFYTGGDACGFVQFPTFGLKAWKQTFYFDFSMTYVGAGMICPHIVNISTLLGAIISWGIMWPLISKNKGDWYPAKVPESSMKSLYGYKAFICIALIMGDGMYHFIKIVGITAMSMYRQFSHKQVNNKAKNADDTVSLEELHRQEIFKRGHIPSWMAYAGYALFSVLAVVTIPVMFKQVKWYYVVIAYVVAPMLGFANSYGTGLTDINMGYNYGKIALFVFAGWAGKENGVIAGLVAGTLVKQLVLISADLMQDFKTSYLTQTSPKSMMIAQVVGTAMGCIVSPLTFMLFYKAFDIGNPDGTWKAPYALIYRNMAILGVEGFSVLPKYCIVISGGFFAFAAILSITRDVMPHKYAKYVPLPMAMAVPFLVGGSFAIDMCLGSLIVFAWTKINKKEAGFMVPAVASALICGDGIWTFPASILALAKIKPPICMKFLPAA

Regarding `[Cl][Fe][Cl]` [FeCl2], the “growth of DDY4 strain expressing HvYS1 with the substance as sole iron source” value (“growth … as sole iron source” below) in the assay on HvYS1 [1] (10 μM in minimum media -Ura) was “did not grow”.

Turning to `[Cl][Fe]([Cl])[Cl]` [FeCl3], in the assay with HvYS1 [1] (10 μM in minimum media -Ura), the “growth … as sole iron source” value is “did not grow”.

Take “citric acid-iron complex (iron-ammonium citrate complex) [Fe(III).citrate]”: the “growth … as sole iron source” value with HvYS1 [1] (50 μM in minimum media -Ura) is given as “did not grow”.

For “mugineic acid-iron(III) complex [Fe(III).MA]”, in the assay on HvYS1 [1] (10 μM Fe(III).MA plus 10 μM BPDS (Fe(II) chelating agent)), the “growth of DDY4 strain expressing HvYS1 in the presence of BPDS” value is reported as “grew”. Moreover, the “growth … as sole iron source” value with HvYS1 [1] (10 μM in minimum media -Ura) is recorded as “grew at the same level as DDY4 strain expressing ZmYS1”. On ZmYS1, the “transport of the iron complex by ZmYS1” value was “transports”. Further, the “voltage change in HvYS1-expressing oocyte cells” value in the assay with HvYS1 [2] is “overwhelmingly strong voltage change”.

In the case of nicotianamine-iron complex [Fe(II).NA], the “growth … as sole iron source” value with HvYS1 [1] (10 μM in minimum media -Ura) is listed as “does not absorb Fe(II).NA, or growth was strongly inhibited”. Also, the “transport of the iron complex by ZmYS1” value on ZmYS1 is recorded as “transports”.
